# Legend:
# Mushroom Tyrosinase = biological target: T1, Mushroom Tyrosinase (Agaricus bisporus, UniProt C7FF04); assay: Tyrosinase inhibition assay (L-Tyrosine substrate, absorbance at 492 nm); type: biochemical; details: EAA alone
# T1 construct: purchased Sigma
# Experimental: Tyrosinase acts on L-Tyrosine forming a pink colored complex, the intensity of which is measured at 492 nm. The Tyrosinase activity in the presence and absence of inhibitor is assayed spectrophotometrically at 492 nm using a Microplate reader.
# Mushroom Tyrosinase enzyme is prepared by dissolving entire content in […], pH 6.5 pre-chilled enzyme buffer to get […]. Gentle shaking for five minutes aids in dissolution of enzyme. Aliquot the stock into vials of 100 μl each and keep at −80° until use for at least 2 months. Multiple freeze-thaw cycles of the enzyme must be avoided.
# A stock of 2.50 mM L-Tyrosine Disodium salt (Sigma) is prepared in 1.5 mM phosphate buffer (pH 6.5) by dissolving 2.845 mg/5 ml.
# Samples were dissolved in DMSO and further dilutions were carried out in buffer
# The assay was performed in a 96 well clear microtitre plate. Different concentrations of the composition comprising ethyl-ascorbic acid and tetrahydrocurcuminoids were pre incubated with 10 μl of […] stock Solution of Mushroom Tyrosinase (f.c. 6 U/well) at 37° C. for 10 minutes. The reaction is initiated by adding 2.5 mM L-Tyrosine disodium and the absorbance is read immediately every minute until 15 minutes using the microplate reader at 492 nm. A test blank well was prepared for each sample without the enzyme. Enzyme reaction with vehicle alone served as a control for enzyme activity. Kojic acid was used as a positive control.
# The results are expressed as IC50 values using Graphpad prism software. The percentage of inhibition of melanin is calculated as follows,
# Where C-absorbance in control and T-absorbance in test sample
# [1] = system: B16F1 mouse melanoma cells; assay: Melanogenesis inhibition in α-MSH stimulated B16F1 cells (melanin at 405 nm); type: cell-based; details: EAA alone, 72 hours
# Experimental: The intracellular melanin in B16F1 mouse melanoma cells is extracted by 1N NaOH. The brown colored melanin thus extracted is estimated at 405 nm. The synthesis of melanin is inhibited in the presence of inhibitor which results in reduced absorbance at 405 nm.
# MSH Stock was prepared at 1 mg/ml in distilled water. MSH at a final concentration of 1 nM was used to stimulate melanogenesis
# B16F1 mouse melanoma cells were cultured for 24 hours in a 96 well microtiter plate at a seeding density of 5000 cells per well. Cells are treated with varying non cytotoxic concentrations of the sample over a period of 72 hours along with melanin stimulating hormone (∝-MSH) to induce the synthesis of melanin pigment. Untreated cells and cells without ∝-MSH addition were used as positive and negative control. The melanin produced by the cells was extracted by 1N NaOH and the absorbance was read at 405 nm in a Microplate reader. The inhibitory effect of the sample is calculated based on the degree of inhibition of melanin formation.
# The results are expressed as IC50 values using Graph pad prism software. The percentage of inhibition of melanin is calculated as follows,
# [formula] Where C-absorbance due to melanin in untreated cells
# T-absorbance due to melanin in sample treated cells
# T1 sequence (C7FF04 1-392 limits assumed): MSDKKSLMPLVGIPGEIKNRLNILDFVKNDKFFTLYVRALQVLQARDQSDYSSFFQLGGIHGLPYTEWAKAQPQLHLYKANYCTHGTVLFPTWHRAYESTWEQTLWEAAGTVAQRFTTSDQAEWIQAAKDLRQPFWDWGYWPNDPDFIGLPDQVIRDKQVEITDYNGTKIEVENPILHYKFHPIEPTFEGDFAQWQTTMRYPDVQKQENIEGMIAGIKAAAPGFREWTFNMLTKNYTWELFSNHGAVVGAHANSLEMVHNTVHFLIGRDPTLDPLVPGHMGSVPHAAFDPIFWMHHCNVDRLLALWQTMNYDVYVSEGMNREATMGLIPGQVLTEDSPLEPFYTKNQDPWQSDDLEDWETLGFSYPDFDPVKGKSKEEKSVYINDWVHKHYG
structure (smiles),measurement,setting,value
"CCOC1=C(O)C(=O)O[C@@H]1[C@@H](O)CO [Ethyl-ascorbic acid (EAA), 3-O-ethyl-ascorbic acid]",% Inhibition of tyrosinase activity,Mushroom Tyrosinase; 62.5 μg/ml,Nil
same,% Inhibition of tyrosinase activity,Mushroom Tyrosinase; 125 μg/ml,Nil
same,inhibition at 250 µg/mL,Mushroom Tyrosinase; 250 μg/ml,11.6%
same,inhibition at 500 µg/mL,Mushroom Tyrosinase; 500 μg/ml,28.3%
same,% Inhibition of melanogenesis,[1]; 0.625 μg/ml,Nil
same,% Inhibition of melanogenesis,"[1]; 0.625 μg/ml, listed as ethyl-ascorbic acid",did not show any melanogenesis inhibition
same,% Inhibition of melanogenesis,[1]; 1.25 μg/ml,Nil

# Source: patent US10864154B2, “Skin care compositions and their applications” (SAMI LABS LIMITED, priority 2019, dated 2020)
